The values below come from patent US20050215646A1, “Methods for treating multiple sclerosis and pharmaceutical compositions therefor” (Renovis, Inc., priority 2004, published 2005).

For one assay, the system named is CCR receptors. Nature of the assay: Migration of CHO-K1 cells expressing CCR receptors. Type of assay: cell-based, human. Particulars: 2 hours, FIG. 4. On the procedure: (§1) CHO-K1 cells were obtained from American Type Culture Collection (CCL-61) and cultured in Ham's F12 media supplemented with 10% heat inactivated FBS and 100 μg/ml penicillin/streptomycin. cDNA fragments encompassing chemokine receptor coding regions were obtained from cDNAs synthesized from HL-60 cells and/or human peripheral blood mononuclear cells by the polymerase chain reaction. Expression constructs of chemokine receptors were generated by cloning PCR fragments into expression vector pEF6/V5-TOPO (K9610-20, Invitrogen). Transient transfections were carried out with Fugene 6 transfection reagent (1814443, Roche Applied Science) according to the manufacturer's instructions.
(§2) The CHO-chemokine receptor cells were used in migration assays 36 hours following transfection. In vitro migration assays were performed using a Neuroprobe Blindwell migration apparatus (AA12, Neuro Probe, Inc./16008 Industrial Drive, Gaithersburg, Md. 20877) according to the manufacturer's instructions with slight modifications. […]
(§3) Following the migration assays, migrated cells that had adhered to the underside of the filter were quantitated according to the manufacturer's instructions. […] Stained filtered were mounted onto microscope slides and migrated cells in each well were manually counted under 40× magnification.

Assay [1] deals with differentiated HL-60 cells. Kind of assay: Inhibition of chemoattractant-mediated chemotaxis of differentiated HL-60 cells after pretreatment. In kind it is cell-based. Particulars: cells pre-incubated with compound 30 minutes at 37° C, migration 2 hours. The procedure: Compound 1 was prepared according to the methods of the invention and tested as described below. Briefly, cells were pre-incubated with Compound 1, and then assayed for chemokine-mediated cell migration.
In vitro cell migration assays were performed using differentiated HL-60 cells. HL-60 cells were differentiated by adding 1.4% DMSO to RPMI-1640 media supplemented with 10% FBS and 100 μg/ml penicillin/streptomycin. Cells on the sixth day following differentiation were used for in vitro migration assays.
In vitro migration assays were performed using a Neuroprobe migration apparatus (MBB96, Neuro Probe, Inc., Gaithersburg, Md. 20877) according to the manufacturer's protocol with slight modifications. Briefly, about 370 μl of diluted chemokine or control was added to a 96-well fibronectin-coated, black-walled Packard plate. Chemoattractants included 100 nM formyl-methionyl-leucyl-phenylalanine (fMLP), 30 ng/ml chemokine Stromal Cell-Derived Factor-1 (SDF-1), 300 ng/ml chemokine IL-8. Negative control included migration media alone. The plate was placed into the migration apparatus, an 8 μm framed filter was carefully placed on top of the plate, and the apparatus was screwed down. […]
After staining, the cells were washed with 200 μl phosphate-buffered saline. Cell number in each well was quantitated using ImageXpress (Axon Instruments) or a fluorescent plate reader.

The test system of assay [2] is C57BL/6J mice model of EAE. Kind of assay: C57BL/6J mice model of experimental autoimmune encephalomyelitis (EAE), prevention paradigm. Type of assay: in vivo, mouse.
The next assay addresses T1, CXCR6 (Homo sapiens, UniProt O00574).
T1 construct: cDNA fragments encompassing chemokine receptor coding regions; expressed in transfected cells; host or cells: CHO-K1 (ATCC CCL-61), transient transfection
Nature of the assay: Migration of CHO-K1 cells expressing CXCR6. Type of assay: cell-based. Particulars: CHO-K1 cells expressing CXCR6, 2 hours; FIG. 3. On the procedure: as §1, §2, §3

The target in a further assay is CXCR4 (Homo sapiens, UniProt P61073). Kind of assay: Migration of CHO-K1 cells expressing CXCR4. Particulars: CHO-K1 cells expressing CXCR4, 2 hours; FIG. 3. Also on record: cDNA fragments encompassing chemokine receptor coding regions; expressed in transfected cells; host or cells: CHO-K1 (ATCC CCL-61), transient transfection. In kind it is cell-based. The procedure: as §1, §2, §3
Sequence of CXCR4 (P61073 whole entry, the tested form may be a part): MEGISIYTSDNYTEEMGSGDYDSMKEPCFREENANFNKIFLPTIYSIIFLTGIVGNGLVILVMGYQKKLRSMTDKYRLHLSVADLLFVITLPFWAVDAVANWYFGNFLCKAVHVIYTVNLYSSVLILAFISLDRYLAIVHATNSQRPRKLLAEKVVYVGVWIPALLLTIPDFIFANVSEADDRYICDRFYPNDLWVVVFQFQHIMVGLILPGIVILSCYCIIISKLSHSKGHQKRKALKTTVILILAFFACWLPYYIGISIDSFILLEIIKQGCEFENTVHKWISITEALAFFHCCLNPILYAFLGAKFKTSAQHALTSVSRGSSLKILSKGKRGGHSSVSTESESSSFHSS

The next assay concerns the target T2, CXCR2 (Homo sapiens, UniProt P25025).
T2 construct: cDNA fragments encompassing chemokine receptor coding regions; expressed in transfected cells; host or cells: CHO-K1 (ATCC CCL-61), transient transfection
T2 sequence (P25025 1-360): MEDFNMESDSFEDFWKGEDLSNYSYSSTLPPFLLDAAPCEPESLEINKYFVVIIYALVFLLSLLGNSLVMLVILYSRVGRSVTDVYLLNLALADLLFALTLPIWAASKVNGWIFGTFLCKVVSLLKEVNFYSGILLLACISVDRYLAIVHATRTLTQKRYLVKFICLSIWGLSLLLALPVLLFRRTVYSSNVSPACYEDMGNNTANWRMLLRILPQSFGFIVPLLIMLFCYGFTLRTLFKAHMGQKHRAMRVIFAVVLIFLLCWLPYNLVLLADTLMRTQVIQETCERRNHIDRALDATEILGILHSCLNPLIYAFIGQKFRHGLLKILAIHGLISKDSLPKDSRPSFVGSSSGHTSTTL
Nature of the assay: Migration of CHO-K1 cells expressing CXCR2. The conditions noted are these: CHO-K1 cells expressing CXCR2, 2 hours; FIG. 3. Type of assay: cell-based. On the procedure:
as §1, §2, §3

T1 sequence (O00574 whole entry, the tested form may be a part): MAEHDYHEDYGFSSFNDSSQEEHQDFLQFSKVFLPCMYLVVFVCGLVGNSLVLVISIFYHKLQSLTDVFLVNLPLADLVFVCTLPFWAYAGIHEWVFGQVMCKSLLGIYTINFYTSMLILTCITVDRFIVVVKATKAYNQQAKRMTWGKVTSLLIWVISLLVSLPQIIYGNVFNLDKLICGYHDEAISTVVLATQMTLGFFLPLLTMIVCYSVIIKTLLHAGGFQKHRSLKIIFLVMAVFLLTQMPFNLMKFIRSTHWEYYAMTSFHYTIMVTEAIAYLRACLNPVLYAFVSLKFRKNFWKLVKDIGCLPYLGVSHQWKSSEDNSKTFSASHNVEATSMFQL

`CC(C)(C)c1cc(/C=[N+](\[O-])C(C)(C)C)cc(C(C)(C)C)c1O` [Compound 1, α-(4-hydroxy-3,5-di-tert-butylphenyl)-N-tert-butylnitrone]: the “induction of cell migration” value was “did not induce migration” with CCR receptors, “induced migration” on CXCR6, “induced migration” on CXCR4 and “induced migration” at CXCR2. Also, the “chemotaxis of the cells toward CXC chemokines such as IL-8 and SDF-1” value in assay [1] (FIG. 1) is on record as “inhibits”. The “chemotaxis of the cells toward fMLP and CCR chemokines such as Rantes and MIP-1” value in assay [1] (FIG. 2) is on record as “inhibits”. In assay [2] (10 mg/kg oral once a day, FIG. 10), the “reversal of EAE-associated weight loss” value is “significant effect on reversal”. Also, the “tissue infiltration score (spinal cord, H&E)” value in assay [2] (10 mg/kg vs Vehicle, Day 26, failing to reach statistical significance (p=0.0513), FIG. 11) is listed as “lower infiltration score than control mice”. The maximum disease score entry in assay [2] (oral gavage once a day from 7 days before induction, Days 9-26, FIG. 8) is given as “significant effect”. Further, the cumulative disease score result in assay [2] (oral gavage once a day from 7 days before induction, Days 9-26, FIG. 9) was “significant effect”. For the same compound, in assay [2] (oral gavage once a day, 0.3, 1, 3, 10 mg/kg from 7 days before induction, vs Vehicle, FIG. 7), the “disease severity (average clinical scores)” value was “significant reduction”.
